We go through five molecules from PMC11726445 (RSC Advances, 2025).

Values after ≈ are worked out from the molar mass of the structure shown.

Assay type in all cases: cell-based
For assay [1], the system named is Bacillus subtilis. Nature of the assay: MIC, broth microdilution.
The next assay concerns Candida albicans. As to the kind of experiment: MIC, broth microdilution.
The subject of assay [2] is Staphylococcus aureus. Nature of the assay: MIC, broth microdilution. In general terms: Dilution methods test growth across graded concentrations, often in twofold steps.
Assay [3] has as its system Klebsiella pneumonia. As to the kind of experiment: MIC, broth microdilution. The note with it: Klebsiella pneumoniae.
In assay [4] the test system is Pseudomonas aeruginosa. As to the kind of experiment: MIC, broth microdilution.
The test system of assay [5] is Pseudomonas aeruginosa. As to the kind of experiment: Bacterial lipid peroxidation. The note with it: treated at the MIC level.
In assay [6] the test system is Klebsiella pneumonia. Nature of the assay: Bacterial lipid peroxidation. The conditions noted are these: treated at the MIC level.
Assay [7] deals with Staphylococcus aureus. As to the kind of experiment: Biofilm inhibition, crystal violet method.
The test system of assay [8] is Salmonella typhimurium. Nature of the assay: Bacterial lipid peroxidation. The note with it: treated at the MIC level.
For assay [9], the system named is Bacillus subtilis. As to the kind of experiment: Biofilm inhibition, crystal violet method.
The subject of assay [10] is Salmonella typhimurium. Nature of the assay: Biofilm inhibition, crystal violet method.
Assay [11] deals with Klebsiella pneumonia. As to the kind of experiment: Biofilm inhibition, crystal violet method.
Assay [12] deals with Staphylococcus aureus. Nature of the assay: Bacterial lipid peroxidation. The note with it: treated at the MIC level.
Assay [13] has as its system Pseudomonas aeruginosa. As to the kind of experiment: Biofilm inhibition, crystal violet method.
Assay [14] concerns Bacillus subtilis. Nature of the assay: Bacterial lipid peroxidation. The conditions noted are these: treated at the MIC level.

For orientation: MIC means the least concentration at which growth counts as inhibited. For `Nc1ccc(S(=O)(=O)Nc2ncccn2)cc1` [Sulfadiazine, reference compound], the MIC in the assay with Bacillus subtilis [1] came out at 46 ± 4.18 µg/mL (≈ 184 µM); in the assay with Candida albicans it was 72 ± 3.44 µg/mL (≈ 288 µM); in the assay with Staphylococcus aureus [2], 24 ± 3.92 µg/mL (≈ 95.9 µM); against Klebsiella pneumonia [3], 47 ± 3.18 µg/mL (≈ 188 µM); against Pseudomonas aeruginosa [4] it was 70 ± 4.99 µg/mL (≈ 280 µM).

`O=C(O)c1cn(C2CC2)c2cc(N3CCNCC3)c(F)cc2c1=O` [Ciprofloxacin, reference compound]: the Lipid peroxidation efficiency with Pseudomonas aeruginosa [5] worked out at 346.3 ± 2.62%; in the assay with Klebsiella pneumonia [6] it was 327.4 ± 4.42%; in the assay with Salmonella typhimurium [8], 294.8 ± 1.99%; in the assay on Staphylococcus aureus [12], 319.8 ± 3.26%; in the assay on Bacillus subtilis [14], 417.7 ± 2.83%. Moreover, the Biofilm inhibition in the assay with Staphylococcus aureus [7] is 30.9 ± 4.52%; with Bacillus subtilis [9], 49.2 ± 1.16%; in the assay on Salmonella typhimurium [10], 58.3 ± 4.02%; with Klebsiella pneumonia [11], 40.8 ± 3.88%; with Pseudomonas aeruginosa [13], 45.2 ± 1.18%.

Consider `CCS(=O)(=O)Oc1ccc(C=NNC(=O)CSc2nc3ccc(Cl)cc3c(=O)n2-c2ccccc2)cc1` [5k, 4-((2-(2-((6-Chloro-4-oxo-3-phenyl-3,4-dihydroquinazolin-2-yl)thio)acetyl)-hydrazono)methyl)phenyl ethanesulfonate], for which the Lipid peroxidation efficiency with Pseudomonas aeruginosa [5] is given as 181.3 ± 6.06%; in the assay with Klebsiella pneumonia [6] it was 295.2 ± 1.89%; in the assay with Salmonella typhimurium [8] it was 278.3 ± 5.07%; in the assay on Staphylococcus aureus [12], 202.2 ± 2.17%; in the assay with Bacillus subtilis [14] it was 377.6 ± 3.44%. Further, the MIC against Bacillus subtilis [1] turned out to be 49 ± 2.77 µg/mL; against Candida albicans, 10 ± 2.55 µg/mL; in the assay on Staphylococcus aureus [2], 52 ± 0.28 µg/mL; in the assay with Klebsiella pneumonia [3], 44 ± 1.88 µg/mL; in the assay on Pseudomonas aeruginosa [4], 97 ± 3.88 µg/mL. In addition, the Biofilm inhibition in the assay on Staphylococcus aureus [7] is 42.9 ± 2.62%; with Bacillus subtilis [9], 63.7 ± 0.92%; in the assay with Salmonella typhimurium [10], 61.9 ± 1.72%; in the assay with Klebsiella pneumonia [11], 53.1 ± 2.12%; with Pseudomonas aeruginosa [13] it was 38.7 ± 3.66%.

On to `CCCS(=O)(=O)Oc1ccc(C=NNC(=O)CSc2nc3c(C)cccc3c(=O)n2-c2ccccc2)cc1OC` [5f, 2-Methoxy-4-((2-(2-((8-methyl-4-oxo-3-phenyl-3,4-dihydroquinazolin-2-yl)thio)-acetyl)hydrazono)methyl)phenyl propane-1-sulfonate], for which the Lipid peroxidation efficiency is given as 140.4 ± 5.02% in the assay on Pseudomonas aeruginosa [5]; 230.4 ± 2.12% in the assay on Klebsiella pneumonia [6]; 273.1 ± 4.33% in the assay on Salmonella typhimurium [8]; 151.2 ± 1.92% in the assay on Staphylococcus aureus [12]; 212.5 ± 5.52% in the assay on Bacillus subtilis [14]. The MIC against Bacillus subtilis [1] is 23 ± 2.21 µg/mL (≈ 39.6 µM); in the assay on Candida albicans, 48 ± 4.18 µg/mL (≈ 82.7 µM); against Staphylococcus aureus [2], 50 ± 0.88 µg/mL (≈ 86.1 µM); in the assay with Klebsiella pneumonia [3], 22 ± 4.72 µg/mL (≈ 37.9 µM); in the assay with Pseudomonas aeruginosa [4], 45 ± 6.11 µg/mL (≈ 77.5 µM). Further, the Biofilm inhibition with Staphylococcus aureus [7] came to 45.1 ± 1.62%; in the assay on Bacillus subtilis [9], 56.4 ± 3.12%; in the assay on Salmonella typhimurium [10] it was 37.4 ± 1.82%; with Klebsiella pneumonia [11], 59.6 ± 2.22%; with Pseudomonas aeruginosa [13], 34.8 ± 4.07%.

`COc1ccc(C=NNC(=O)CSc2nc3c(C)cccc3c(=O)n2-c2ccccc2)cc1OS(C)(=O)=O` [5g, 2-Methoxy-5-((2-(2-((8-methyl-4-oxo-3-phenyl-3,4-dihydroquinazolin-2-yl)thio)-acetyl)hydrazono)methyl)phenyl methanesulfonate]: the Lipid peroxidation efficiency in the assay with Pseudomonas aeruginosa [5] is listed as 175.2 ± 3.29%; in the assay with Klebsiella pneumonia [6], 285.2 ± 1.44%; with Salmonella typhimurium [8] it was 210.4 ± 4.66%; with Staphylococcus aureus [12], 118.4 ± 2.26%; with Bacillus subtilis [14] it was 219.7 ± 2.71%. For the same molecule, the MIC against Bacillus subtilis [1] came out at 48 ± 2.25 µg/mL; in the assay with Candida albicans, 9 ± 3.17 µg/mL; in the assay with Staphylococcus aureus [2] it was 11.3 ± 2.38 µg/mL; against Klebsiella pneumonia [3] it was 99 ± 5.02 µg/mL; against Pseudomonas aeruginosa [4], 96 ± 4.83 µg/mL. In addition, in the assay on Staphylococcus aureus [2], the “Efficacy (MIC) relative to Sulfadiazine” value stood at 2 fold. In addition, the Biofilm inhibition in the assay on Staphylococcus aureus [7] is listed as 34.7 ± 4.02%; in the assay on Bacillus subtilis [9], 45.1 ± 2.72%; with Salmonella typhimurium [10], 33.9 ± 2.94%; in the assay with Klebsiella pneumonia [11] it was 32.8 ± 1.92%; in the assay with Pseudomonas aeruginosa [13], 20.1 ± 2.32%.
